In ChEMBL document CHEMBL1137690, “Novel amide derivatives as inhibitors of histone deacetylase: design, synthesis and SAR” (Eur J Med Chem, 2009) one finds IC50, Activity and inhibition data, which are given here for 30 compounds.

Test [1] concerns HeLa. As to the kind of experiment: Antiproliferative activity against human HeLa cells after 4 hrs by WST-1 assay. It counts as functional, cell-based. A general note: Formazan colour is commonly taken as a measure of viable cells.
The subject of test [2] is P388. As to the kind of experiment: Antitumor activity in mouse P388 cells xenografted B6D2F1 mouse assessed as increase in life span at 20 mg/kg/day, ip administered 3 to 7 days postxenografting. The class given is functional. Conditions: route intraperitoneal.
Test [3] relates to P388. Briefly: Antitumor activity in mouse P388 cells xenografted B6D2F1 mouse assessed as increase in life span at 60 mg/kg/day, ip administered 3 to 7 days postxenografting. It counts as functional. Conditions: route intraperitoneal.
In test [4] the target is Histone deacetylase (Homo sapiens) (UniProt Q13547+O15379+Q9UBN7+Q92769+Q9UQL6+Q8WUI4+Q9BY41+Q96DB2+P56524+Q9UKV0+Q969S8). As to the kind of experiment: Inhibition of HDAC from human HeLa cells at 500 nM.
For test [5], the target named is Histone deacetylase. As to the kind of experiment: Inhibition of HDAC from human HeLa cells. The class given is cell-based.
For test [6], the target named is Histone deacetylase 1 (Homo sapiens, UniProt Q13547). Briefly: Inhibition of human recombinant HDAC1.
Chain of Histone deacetylase 1 (Q13547 whole entry): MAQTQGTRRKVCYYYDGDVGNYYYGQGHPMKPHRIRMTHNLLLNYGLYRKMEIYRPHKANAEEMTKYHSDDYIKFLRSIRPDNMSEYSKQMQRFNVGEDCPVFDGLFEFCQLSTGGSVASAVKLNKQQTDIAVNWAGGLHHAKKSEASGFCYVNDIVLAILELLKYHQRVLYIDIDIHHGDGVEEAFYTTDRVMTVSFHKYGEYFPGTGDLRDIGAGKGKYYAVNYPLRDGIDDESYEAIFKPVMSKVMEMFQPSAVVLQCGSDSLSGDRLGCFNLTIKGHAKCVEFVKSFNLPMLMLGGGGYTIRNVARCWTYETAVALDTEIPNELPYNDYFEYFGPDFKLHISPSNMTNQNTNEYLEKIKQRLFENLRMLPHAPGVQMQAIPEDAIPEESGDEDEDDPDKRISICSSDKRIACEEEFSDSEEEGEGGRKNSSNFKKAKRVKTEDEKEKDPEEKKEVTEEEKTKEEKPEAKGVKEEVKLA
Test [7] deals with Histone deacetylase 2 (Homo sapiens, UniProt Q92769). Briefly: Inhibition of human recombinant HDAC2.
Chain of Histone deacetylase 2 (Q92769 whole entry): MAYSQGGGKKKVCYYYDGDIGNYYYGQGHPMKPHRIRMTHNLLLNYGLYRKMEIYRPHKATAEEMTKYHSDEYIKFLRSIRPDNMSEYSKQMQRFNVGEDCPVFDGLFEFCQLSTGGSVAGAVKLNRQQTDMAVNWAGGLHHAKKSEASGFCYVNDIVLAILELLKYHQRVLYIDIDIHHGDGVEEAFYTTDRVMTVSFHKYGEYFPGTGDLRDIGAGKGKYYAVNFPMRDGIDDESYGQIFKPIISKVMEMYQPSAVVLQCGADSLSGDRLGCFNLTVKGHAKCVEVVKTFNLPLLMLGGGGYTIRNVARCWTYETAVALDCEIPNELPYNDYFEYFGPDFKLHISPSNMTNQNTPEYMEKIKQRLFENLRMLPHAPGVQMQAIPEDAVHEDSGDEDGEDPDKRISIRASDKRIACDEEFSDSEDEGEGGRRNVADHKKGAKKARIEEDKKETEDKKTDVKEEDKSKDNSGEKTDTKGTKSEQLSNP
Test [8] has as its target Histone deacetylase 3 (Homo sapiens, UniProt O15379). As to the kind of experiment: Inhibition of human recombinant HDAC3.
Test [9] addresses Histone deacetylase 4 (Homo sapiens, UniProt P56524). Briefly: Inhibition of human recombinant HDAC4.
Test [10] deals with T1, Protein deacetylase HDAC6 (Homo sapiens, UniProt Q9UBN7).
T1 sequence (Q9UBN7 whole entry): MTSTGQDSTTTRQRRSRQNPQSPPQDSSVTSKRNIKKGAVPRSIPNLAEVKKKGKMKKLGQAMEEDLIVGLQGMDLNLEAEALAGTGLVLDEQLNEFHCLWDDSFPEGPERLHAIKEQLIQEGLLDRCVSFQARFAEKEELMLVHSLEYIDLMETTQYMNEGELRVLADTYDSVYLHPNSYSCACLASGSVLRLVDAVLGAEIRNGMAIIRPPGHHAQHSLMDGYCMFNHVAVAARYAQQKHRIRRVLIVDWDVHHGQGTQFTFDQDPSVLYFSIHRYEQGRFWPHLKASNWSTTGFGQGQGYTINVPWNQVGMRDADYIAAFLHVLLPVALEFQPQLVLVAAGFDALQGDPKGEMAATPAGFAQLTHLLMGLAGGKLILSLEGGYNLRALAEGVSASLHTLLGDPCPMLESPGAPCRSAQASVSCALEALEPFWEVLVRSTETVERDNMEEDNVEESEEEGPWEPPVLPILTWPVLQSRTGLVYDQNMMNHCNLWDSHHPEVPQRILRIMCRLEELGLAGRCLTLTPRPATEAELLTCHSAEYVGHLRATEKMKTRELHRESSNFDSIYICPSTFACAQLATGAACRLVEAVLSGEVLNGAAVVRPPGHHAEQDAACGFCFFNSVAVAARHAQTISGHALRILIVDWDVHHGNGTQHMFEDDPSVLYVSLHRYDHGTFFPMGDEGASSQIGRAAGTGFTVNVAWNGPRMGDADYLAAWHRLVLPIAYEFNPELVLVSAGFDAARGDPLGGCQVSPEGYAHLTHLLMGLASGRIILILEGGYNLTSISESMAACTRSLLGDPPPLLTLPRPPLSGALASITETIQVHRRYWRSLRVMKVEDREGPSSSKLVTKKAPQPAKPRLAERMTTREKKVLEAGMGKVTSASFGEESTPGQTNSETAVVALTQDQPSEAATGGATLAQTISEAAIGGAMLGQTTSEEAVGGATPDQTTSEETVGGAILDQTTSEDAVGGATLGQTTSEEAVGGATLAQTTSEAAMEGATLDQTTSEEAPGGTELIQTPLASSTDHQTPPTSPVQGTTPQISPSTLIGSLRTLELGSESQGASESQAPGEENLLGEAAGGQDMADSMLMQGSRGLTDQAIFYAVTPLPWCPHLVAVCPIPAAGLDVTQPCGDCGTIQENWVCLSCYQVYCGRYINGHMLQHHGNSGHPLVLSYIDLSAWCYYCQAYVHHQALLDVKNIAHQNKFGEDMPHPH
Briefly: Inhibition of human recombinant HDAC6.

For test [11], the target named is T2, Histone deacetylase 8 (Homo sapiens, UniProt Q9BY41).
T2 sequence (Q9BY41 whole entry): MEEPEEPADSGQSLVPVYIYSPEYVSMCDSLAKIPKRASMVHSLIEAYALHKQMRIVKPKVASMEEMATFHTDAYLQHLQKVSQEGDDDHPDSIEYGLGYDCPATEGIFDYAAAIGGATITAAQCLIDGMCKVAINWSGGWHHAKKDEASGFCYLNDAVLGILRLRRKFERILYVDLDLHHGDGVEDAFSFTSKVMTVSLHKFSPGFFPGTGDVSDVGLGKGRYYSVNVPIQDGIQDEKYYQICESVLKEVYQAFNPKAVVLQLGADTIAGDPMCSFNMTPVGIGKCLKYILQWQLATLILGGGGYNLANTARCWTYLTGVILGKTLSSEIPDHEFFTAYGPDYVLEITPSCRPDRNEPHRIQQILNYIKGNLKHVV
As to the kind of experiment: Inhibition of human recombinant HDAC8.

In test [12] the target is Histone deacetylase 9 (Homo sapiens, UniProt Q9UKV0). As to the kind of experiment: Inhibition of human recombinant HDAC9.
Chain of Histone deacetylase 9 (Q9UKV0 whole entry): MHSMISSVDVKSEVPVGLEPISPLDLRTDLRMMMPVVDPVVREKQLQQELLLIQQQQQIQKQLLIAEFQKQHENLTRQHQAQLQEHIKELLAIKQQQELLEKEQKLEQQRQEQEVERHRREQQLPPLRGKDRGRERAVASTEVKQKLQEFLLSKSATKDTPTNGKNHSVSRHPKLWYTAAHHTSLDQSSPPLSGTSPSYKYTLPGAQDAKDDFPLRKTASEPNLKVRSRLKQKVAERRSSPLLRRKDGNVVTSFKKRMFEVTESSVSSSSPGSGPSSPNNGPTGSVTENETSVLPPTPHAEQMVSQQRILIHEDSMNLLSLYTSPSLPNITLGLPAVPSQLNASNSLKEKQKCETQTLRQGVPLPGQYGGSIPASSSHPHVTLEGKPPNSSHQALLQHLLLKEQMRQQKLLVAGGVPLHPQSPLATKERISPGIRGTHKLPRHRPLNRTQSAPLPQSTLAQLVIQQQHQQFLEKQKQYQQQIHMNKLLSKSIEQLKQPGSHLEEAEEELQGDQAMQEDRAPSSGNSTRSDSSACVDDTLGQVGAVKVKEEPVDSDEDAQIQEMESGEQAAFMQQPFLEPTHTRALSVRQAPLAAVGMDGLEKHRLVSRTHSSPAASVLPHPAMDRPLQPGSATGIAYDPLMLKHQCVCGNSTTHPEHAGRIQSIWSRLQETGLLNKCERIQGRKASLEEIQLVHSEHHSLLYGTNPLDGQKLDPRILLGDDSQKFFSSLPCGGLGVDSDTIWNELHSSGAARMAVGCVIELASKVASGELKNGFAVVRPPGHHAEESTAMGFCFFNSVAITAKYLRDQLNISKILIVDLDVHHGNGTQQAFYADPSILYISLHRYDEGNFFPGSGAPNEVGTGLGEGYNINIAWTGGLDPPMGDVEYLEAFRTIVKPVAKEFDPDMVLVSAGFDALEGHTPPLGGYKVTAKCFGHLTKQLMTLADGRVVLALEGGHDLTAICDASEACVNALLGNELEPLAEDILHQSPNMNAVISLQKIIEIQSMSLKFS
In test [13] the test system is P388. Briefly: Antitumor activity in mouse P388 cells xenografted B6D2F1 mouse assessed as increase in life span at 100 mg/kg/day, ip administered 3 to 7 days postxenografting. The class given is functional. Conditions: route intraperitoneal.

For orientation: IC50 means the point on the concentration scale where inhibition reaches its midpoint. By inhibition is commonly meant the percentage by which the read-out fell short of the control. Low readings indicate a weak effect, high ones a strong effect.

Chain of Histone deacetylase 4 (P56524 whole entry): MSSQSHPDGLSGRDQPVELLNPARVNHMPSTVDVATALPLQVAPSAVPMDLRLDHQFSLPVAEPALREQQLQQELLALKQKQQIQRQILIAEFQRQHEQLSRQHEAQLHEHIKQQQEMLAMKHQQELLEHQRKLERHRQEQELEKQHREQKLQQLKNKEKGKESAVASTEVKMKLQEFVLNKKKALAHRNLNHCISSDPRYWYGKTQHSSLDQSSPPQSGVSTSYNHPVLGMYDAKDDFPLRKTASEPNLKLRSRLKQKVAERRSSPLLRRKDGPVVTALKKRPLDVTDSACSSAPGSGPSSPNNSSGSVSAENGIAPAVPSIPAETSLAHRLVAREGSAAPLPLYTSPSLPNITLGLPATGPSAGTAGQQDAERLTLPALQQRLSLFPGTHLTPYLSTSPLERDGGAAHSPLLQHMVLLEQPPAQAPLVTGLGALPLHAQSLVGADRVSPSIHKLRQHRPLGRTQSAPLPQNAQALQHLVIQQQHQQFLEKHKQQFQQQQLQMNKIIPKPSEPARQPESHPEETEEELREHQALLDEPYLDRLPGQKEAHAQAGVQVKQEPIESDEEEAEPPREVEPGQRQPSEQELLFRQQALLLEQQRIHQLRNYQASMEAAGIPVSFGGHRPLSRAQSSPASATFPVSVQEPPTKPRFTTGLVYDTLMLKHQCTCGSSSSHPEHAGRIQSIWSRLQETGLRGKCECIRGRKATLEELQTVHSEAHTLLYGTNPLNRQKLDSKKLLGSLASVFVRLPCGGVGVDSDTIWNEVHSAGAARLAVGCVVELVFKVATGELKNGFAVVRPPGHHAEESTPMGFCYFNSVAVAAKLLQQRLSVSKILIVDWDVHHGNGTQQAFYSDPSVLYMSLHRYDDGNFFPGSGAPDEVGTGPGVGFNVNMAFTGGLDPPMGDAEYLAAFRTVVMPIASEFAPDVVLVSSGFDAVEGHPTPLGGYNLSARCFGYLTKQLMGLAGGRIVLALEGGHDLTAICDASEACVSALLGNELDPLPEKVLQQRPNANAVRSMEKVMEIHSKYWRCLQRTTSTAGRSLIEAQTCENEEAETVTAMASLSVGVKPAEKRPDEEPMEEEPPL
Chain of Histone deacetylase 3 (O15379 whole entry): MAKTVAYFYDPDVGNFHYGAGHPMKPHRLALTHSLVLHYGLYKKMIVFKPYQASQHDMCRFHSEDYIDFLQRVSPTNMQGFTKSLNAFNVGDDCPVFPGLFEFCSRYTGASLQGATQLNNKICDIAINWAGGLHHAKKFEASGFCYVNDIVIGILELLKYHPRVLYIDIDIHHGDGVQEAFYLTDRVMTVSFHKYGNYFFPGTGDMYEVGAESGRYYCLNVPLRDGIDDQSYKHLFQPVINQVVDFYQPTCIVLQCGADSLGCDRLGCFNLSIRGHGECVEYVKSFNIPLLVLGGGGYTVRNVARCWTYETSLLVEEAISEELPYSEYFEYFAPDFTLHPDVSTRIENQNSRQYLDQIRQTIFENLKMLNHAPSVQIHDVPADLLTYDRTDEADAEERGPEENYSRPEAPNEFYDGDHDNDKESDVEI

In the case of `O=C(/C=C/c1ccc2cccnc2c1)NCCCCCC(=O)NO`, the IC50 in test [1] (48 h) came to 12.3 µM. Further, the Activity in test [2] turned out to be 0%; in [3], 111%.

Regarding `O=C(CCCCCNC(=O)C/C=C/c1ccccc1)NO`, the midpoint of inhibition in [1] (48 h), the IC50, lay at 24 µM. The compound also registered an inhibition in test [4] of 53%.

`O=C(CCCCCCC(=O)NCc1ccccc1)NO`: the IC50 in test [1] (48 h) is 44.2 µM. In [4], this compound registered an inhibition of 39%.

As for `O=C(/C=C/c1ccc2ccccc2c1)NCCCCCC(=O)NO`, the values for the IC50 in [5] and in test [1] (48 h) were 0.007 µM and 18.3 µM, respectively.

On to `O=C(/C=C/c1ccncc1)NCCCCCC(=O)NO.O=C(O)C(=O)O`, for which the IC50 in [5] was determined as 0.101 µM; in [1] (48 h), 46.4 µM.

In test [1] (48 h), `CC(/C=C/c1ccccc1)=C\C(=O)NCCCCCC(=O)NO` gave an IC50 of 4.8 µM.

Regarding `CC(/C=C/C(=O)NCCCC(=O)NO)=C\c1ccccc1`, the figures for the IC50 in test [5] and in [1] (48 h) were 22.85 µM and 114 µM, respectively.

Take `O=C(/C=C/c1ccc(Cl)cc1F)NCCCCCC(=O)NO`: half-maximal inhibition in test [1] (48 h) (IC50) was put at 6.3 µM. Further, the Activity in [2] turned out to be 0%; in test [3], 22%.

Regarding `O=C(/C=C/c1cccnc1)NCCCCCC(=O)NO.O=C(O)C(=O)O`, the IC50 in test [5] is 0.141 µM; in test [1] (48 h), 28.4 µM.

As to `O=C(C=C(c1ccccc1)c1ccccc1)NCCCCCC(=O)NO`, the IC50 in [5] was determined as 0.201 µM; in [1] (48 h), 8.5 µM.

Turning to `O=C(C=C1c2ccccc2-c2ccccc21)NCCCCCC(=O)NO`, the IC50 in test [5] came out at 0.005 µM; in test [6], 0.0016 µM; in test [7] it was 0.0008 µM; in test [8], 0.0028 µM; in [9] it was 0.0012 µM; in test [10] it was 0.002 µM. Further, the IC50 stood at 0.779 µM in test [11], 0.0023 µM in test [12] and 1.7 µM in [1] (48 h). In addition, the Activity in test [2] stood at 11%; in test [3] it was 78%.

`O=C(CCCCCCC(=O)Nc1ccccc1)NO` [VORINOSTAT]: the figures for the Activity in test [13], in test [2] and in test [3] were 14%, 11% and 0%, respectively.

In turn, `O=C(CCCCCNC(=O)CCCc1ccccc1)NO` came in with an IC50 in [1] (48 h) of 52.7 µM. The compound further showed an inhibition in test [4] of 19%.

The compound `O=C(CCCCCNC(=O)Cc1ccc(-c2ccccc2)cc1)NO` gave an IC50 in test [1] (48 h) of 35.9 µM. In test [4], the inhibition was 51%.

As for `O=C(/C=C/c1cccc2cccnc12)NCCCCCC(=O)NO`, the values for the IC50 in test [5] and in test [1] (48 h) were 0.025 µM and 20.9 µM, respectively.

As for `O=C(CCCCCNC(=O)CCc1ccccc1)NO`, in test [1] (48 h), the IC50 amounted to 74.8 µM. Also, the inhibition in [4] is 27%.

As for `O=C(C#Cc1ccccc1)NCCCCCC(=O)NO`, the IC50 stood at 0.062 µM in [5] and 10.6 µM in [1] (4 h).

With `O=C(CCCCCNC(=O)c1ccc(-c2ccccc2)cc1)NO`, the concentration for half-maximal inhibition (IC50) in test [5] turned out to be 0.038 µM; in [1] (48 h), 2.6 µM.

`O=C(/C=C/c1ccccc1)NCCCCCC(=O)NO`: the concentration for half-maximal inhibition (IC50) in [5] worked out at 0.032 µM; in [1] (48 h) it was 5.5 µM.

On to `O=C(CCCCCNC(=O)CC/C=C/c1ccccc1)NO`, for which the values for the IC50 in [5] and in test [1] (48 h) were 0.625 µM and 20.6 µM, respectively.

Consider `O=C(C=C1c2ccccc2CCc2ccccc21)NCCCCCC(=O)NO`, for which the 50% inhibitory concentration (IC50) in [5] amounted to 0.338 µM; in test [1] (48 h) it was 9.9 µM.

In turn, `CN(C)c1ccc(CC(=O)NCCCCCC(=O)NO)cc1` had an IC50 in [1] (48 h) of 52.7 µM. Further, in [4], the inhibition came out at 9%.

`O=C(CCCCCNC(=O)CCCCc1ccccc1)NO`: half-maximal inhibition in test [1] (48 h) (IC50) was put at 70.8 µM. Also, in test [4], the inhibition turned out to be 51%.

Turning to `O=C(CCCCCCNC(=O)c1ccc2ccccc2c1)NO`, the IC50 in [1] (48 h) was determined as 0.4 µM.

The compound `O=C(CCCCNC(=O)c1ccc2ccccc2c1)NO` came in with an IC50 in test [1] (48 h) of 24.7 µM. Also, the inhibition in [4] amounted to 42%.

Consider `O=C(CCCCCCCNC(=O)c1ccc2ccccc2c1)NO`, for which the IC50 in test [5] was 0.028 µM; in [1] (48 h), 3.6 µM.

Consider `O=C(CCCCCCC(=O)NCCc1ccccc1)NO`, for which the IC50 in test [1] (48 h) was determined as 13.3 µM. This compound gave an inhibition in test [4] of 46%.

Consider `CN(C)c1ccc(C(=O)NCCCCCC(=O)NO)cc1`, for which the IC50 in test [1] (48 h) is 4.1 µM.

For the compound `O=C(/C=C/C=C/c1ccccc1)NCCCCCC(=O)NO`, the figures for the IC50 in test [5] and in [1] (48 h) were 0.029 µM and 5.1 µM, respectively.

Consider `O=C(/C=C/c1ccccn1)NCCCCCC(=O)NO.O=C(O)C(=O)O`, for which the IC50 in test [5] stood at 0.046 µM; in test [1] (48 h), 9.5 µM.
